These results are taken from ChEMBL document CHEMBL5137091, “Investigating the Structure-Activity Relationship of 1,2,4-Triazine G-Protein-Coupled Receptor 84 (GPR84) Antagonists” (J Med Chem, 2022).

Molecules are shown by their SMILES.

Test system in one data set: not listed separately
The experiment in a line: Protein binding in mouse plasma assessed as unbound fraction. Type of data set: ADME, cell-free.
As a reminder, the fraction unbound is free concentration divided by total concentration. As for `c1ccc(-c2nnc(Cc3c[nH]c4ccccc34)nc2-c2ccccc2)cc1`, the fraction unbound is less than 0.01.
Still for that read-out and setting: the value for `c1ccc(-c2nc(Cc3c[nH]c4ccccc34)nnc2-c2ccc(CN3CCOCC3)cc2)cc1` was less than 0.01.

Another data set deals with G-protein coupled receptor 84 (Homo sapiens, UniProt Q9NQS5). In words: biochemical.
Sequence of G-protein coupled receptor 84 (Q9NQS5 whole entry): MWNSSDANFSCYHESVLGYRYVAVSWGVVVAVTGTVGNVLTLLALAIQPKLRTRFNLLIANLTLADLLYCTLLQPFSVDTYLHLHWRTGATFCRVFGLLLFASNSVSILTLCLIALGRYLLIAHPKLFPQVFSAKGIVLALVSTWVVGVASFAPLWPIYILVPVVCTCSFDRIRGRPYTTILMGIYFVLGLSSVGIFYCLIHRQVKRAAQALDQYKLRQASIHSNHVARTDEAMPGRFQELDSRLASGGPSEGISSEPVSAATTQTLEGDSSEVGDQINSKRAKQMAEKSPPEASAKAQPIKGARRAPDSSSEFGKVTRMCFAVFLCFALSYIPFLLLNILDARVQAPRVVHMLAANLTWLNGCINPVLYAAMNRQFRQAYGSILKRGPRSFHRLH
The IC50 is the concentration that gives 50% inhibition. Higher therefore signals a need for much substance. As for `c1ccc(-c2cnc(Cc3c[nH]c4ccccc34)nn2)cc1`, the IC50 was 5620 nM.
Turning to `COC(=O)c1cccc(-c2nc(Cc3c[nH]c4ccccc34)nnc2-c2ccccc2)c1`, the IC50 was 398 nM.
As for `COC(=O)c1cccc(-c2nnc(Cc3c[nH]c4ccccc34)nc2-c2ccccc2)c1`, half-maximal inhibition (IC50) required 115 nM.
On the same count and under the same terms, the value for `c1ccc(-c2nnc(Cc3c[nH]c4ccccc34)nc2-c2ncccn2)cc1` was 263 nM; that for `c1ccc(-c2cnnc(Cc3c[nH]c4ccccc34)n2)cc1` was 10200 nM.
